Test results: patent US9738933B2, “RNF41 as a biomarker predicting response to lenalidomide in non-del(5q) MDS” (H. LEE MOFFITT CANCER CENTER AND RESEARCH INSTITUTE, INC., priority 2012, dated 2017)

What was measured:
[1] = system: c-Kit; assay: c-Kit (Type 2 receptor) expression in UT-7 cells, immunoblot; assay type: cell-based; details: LEN 0.1, 1, 10 μM, 1 hour
Experimental: (§1) To examine if the effects of LEN on receptor turnover are restricted to Type 1 cytokine receptors, the effects of LEN on cellular expression of IL3-R (Type 1) and c-Kit (Type 2) were examined. UT-7 cells were treated with increasing concentrations of LEN (0 μM (control), 0.1 μM, 1 μM, and 10 μM) for 1 hour. Samples were separated by SDS-PAGE and immunoblotted with IL3-R (Type 1) and c-Kit (Type 2) antibodies.

[2] = target: T1, RNF41 (Homo sapiens, UniProt Q9H4P4); assay: RNF41 auto-ubiquitination in bortezomib pre-treated UT-7 cells, RNF41 immunoprecipitation and ubiquitin immunoblot; assay type: cell-based; details: bortezomib 20 nM 24 hours, then LEN 0.1, 1, 10 μM, 1 hour
T1 construct: assessed through immunoprecipitation of RNF41 and immunoblotting for ubiquitin; endogenous in cells; host or cells: UT-7
T1 sequence (Q9H4P4 1-317): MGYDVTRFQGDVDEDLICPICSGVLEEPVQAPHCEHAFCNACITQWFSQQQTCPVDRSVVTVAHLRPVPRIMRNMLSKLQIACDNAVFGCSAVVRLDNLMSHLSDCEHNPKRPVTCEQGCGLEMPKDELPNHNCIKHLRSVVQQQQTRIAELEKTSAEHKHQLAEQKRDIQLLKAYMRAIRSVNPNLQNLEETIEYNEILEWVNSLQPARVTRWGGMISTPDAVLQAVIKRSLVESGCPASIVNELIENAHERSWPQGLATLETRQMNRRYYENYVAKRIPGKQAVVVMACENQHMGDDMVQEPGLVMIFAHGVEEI
Experimental: (§2) To investigate the effects of LEN on RNF41 function, protein specific ubiquitination after proteasomal inhibition with bortezomib followed by LEN treatment was investigated. UT-7 cells were pre-treated with bortezomib (20 nM), a proteasome inhibitor, for 24 hours. The cells were subsequently treated with increasing concentrations of LEN (0 μM (control), 0.1 μM, 1 μM, and 10 μM) for 1 hour. The effect of LEN treatment on RNF41 was assessed through immunoprecipitation of RNF41 and immunoblotting for ubiquitin. To verify the observed effects, total protein levels in whole cell lysates were also assessed for RNF41 expression. In order to determine EpoR ubiquitination changes upon LEN treatment, immunoprecipitation of EpoR was carried out followed by immunoblotting for ubiquitin.

[3] = system: non-del(5q) MDS; details: MDS patients with non-del(5q); cited from earlier work
[4] = target: T2, EpoR/RNF41 (Homo sapiens, UniProt Q9H4P4); assay: EpoR/RNF41 association in UT-7 cells, EpoR immunoprecipitation and RNF41 immunoblot; assay type: cell-based; details: LEN 0.1, 1, 10 μM, 1 hour
T2 construct: endogenous in cells; host or cells: UT-7
T2 sequence (Q9H4P4 1-317): T1 sequence (Q9H4P4 1-317)
T2 sequence (P19235 25-508 partner): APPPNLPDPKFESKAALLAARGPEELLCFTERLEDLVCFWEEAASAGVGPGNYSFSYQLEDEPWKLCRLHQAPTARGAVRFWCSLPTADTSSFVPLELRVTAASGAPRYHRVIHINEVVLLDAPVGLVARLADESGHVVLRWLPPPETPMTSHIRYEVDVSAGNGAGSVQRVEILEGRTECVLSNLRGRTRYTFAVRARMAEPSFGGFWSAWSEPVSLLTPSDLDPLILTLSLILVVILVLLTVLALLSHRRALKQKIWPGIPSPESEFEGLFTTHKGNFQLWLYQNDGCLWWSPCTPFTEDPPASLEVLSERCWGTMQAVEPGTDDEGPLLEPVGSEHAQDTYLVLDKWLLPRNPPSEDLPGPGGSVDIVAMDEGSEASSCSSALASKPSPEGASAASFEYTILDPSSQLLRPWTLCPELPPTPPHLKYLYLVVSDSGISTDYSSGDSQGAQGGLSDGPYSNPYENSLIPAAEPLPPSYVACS
Experimental: To determine if LEN alters EpoR/RNF41 interaction, protein association after LEN treatment was examined. UT-7 cells were treated with increasing concentrations of LEN (0 μM (control), 0.1 μM, 1 μM, and 10 μM) for 1 hour. The cells were then lysed, and the cell lysates were immunoprecipitated for EpoR, and immunoblotted for EpoR and RNF41.

[5] = system: IL3-R; assay: IL3-R (Type 1 receptor) expression in UT-7 cells, immunoblot; assay type: cell-based; details: LEN 0.1, 1, 10 μM, 1 hour
Experimental: as §1

[6] = system: EpoR; assay: EpoR stability in UT-7 cells treated with cycloheximide ± LEN, EpoR immunoblot; assay type: cell-based; details: cycloheximide + 1 μM LEN, CHX alone 56 h
Experimental: UT-7 cells (a cell line established from the bone marrow of a patient with acute megakaryoblastic leukemia) were treated with cycloheximide (CHX)±1 μM LEN for 0, 32, 40, 48, 56, 64, and 72 hours. The samples were then separated by SDS-PAGE, and immunoblotted with EpoR antibodies.

[7] = system: EpoR; assay: LEN-induced EpoR expression in HEK293T cells transfected with EpoR and/or RNF41, immunoblot densitometry; assay type: cell-based; details: EpoR+pMet7-RNF41 vs EpoR HEK293T cells, LEN 0.1, 1, 10 μM, 1 hour
Experimental: FIG. 1 is a bar graph plotting the ratio of EpoR/Actin in EpoR and EpoR+pMet7-RNF41 HEK293T cells treated with increasing concentrations of LEN (0 μM (control), 0.1 μM, 1 μM, and 10 μM).
To confirm that RNF41 is the principal target of LEN responsible for EpoR stabilization, HEK293T cells were transfected with EpoR and/or RNF41 expression vectors using the calcium phosphate method. Transfected cells were treated with increasing concentrations of LEN (0 μM (control), 0.1 μM, 1 μM, and 10 μM) for 1 hour, separated by SDS-PAGE, and immunoblotted with EpoR antibodies. Steady state EpoR expression was lower in EpoR/RNF41 cells compared with cells transfected with EpoR alone.

[8] = system: JAK2-associated EpoR; details: Basiorka, et al. Blood 2011; cited from earlier work
[9] = system: EpoR; assay: EpoR ubiquitination in bortezomib pre-treated UT-7 cells, EpoR immunoprecipitation and ubiquitin immunoblot; assay type: cell-based; details: bortezomib 20 nM 24 hours, then LEN 0.1, 1, 10 μM, 1 hour
Experimental: as §2

Nc1cccc2c1CN(C1CCC(=O)NC1=O)C2=O (stereo not drawn) [LEN, Lenalidomide]
cellular expression of c-Kit [1]: remained unchanged
RNF41 auto-ubiquitination [2]: inhibited RNF41 auto-ubiquitination in a concentration-dependent fashion
patients likely to be responsive to treatment [3]: approximately 26%
binding of RNF41 to EpoR [4]: Increased binding of RNF41 to EpoR occurs in a concentration-dependent manner
cellular expression of IL3-R [5]: Upregulation of IL3-R occurred in a concentration-dependent manner
cellular EpoR T1/2 [6]: > 72 h
LEN induced EpoR expression (EpoR/Actin) with RNF41 overexpression [7]: blocked LEN induced EpoR expression by approximately two-fold
cellular expression of JAK2-associated EpoR [8]: induces cellular expression of JAK2-associated EpoR in a concentration-dependent manner
EpoR ubiquitination [9]: corresponding decrease in EpoR ubiquitination
